Key:
[1] = tested on: TNF-α; assay: Increase in plasma TNF-alpha induced by LPS; format: in vivo, mice; conditions: pregnenolone 6 mg/kg sc 30 min before LPS; measured 90 min after LPS
[2] = target: CB1 receptor (Mus musculus, UniProt P47746); assay: Intravenous self-administration of the CB1 agonist WIN 55,212-2; format: in vivo, CD1 mice; set-up: tissue Charles River Laboratories (France) (animals); host or cells: living mice, whole animal
Description: The intravenous self-administration experiments where the animals learned to self-infuse WIN 55, 212-2 (WIN) were conducted in mouse operant chambers (Model ENV-307A-CT, Medical Associates, Georgia, Vt., USA) using procedures previously described (Mendizabal V, et al., Neuropsychopharmacology. 2006, 31:1957-66).
In order to analyse the effects of pregnenolone administration on the positive reinforcing effect of CB1 activation that are related to the ability of THC to induce addiction, the inventors used the intravenous self-administration model performed in accordance to protocols previously described (Soria et al., 2006; Mendizabal et al., 2006). Intravenous self-administration is considered the best behavioural model of addiction. In this model animals learn to produce an operant response, in our case pocking the nose in a hole, in order to obtain an intravenous infusion of the drug. […] In this schedule animals are required to produce an increasing number of responses (ratio) to obtain one drug infusion, the break-point being the last ratio completed and is considered a reliable measure of the motivation for the drug. On PR session the response requirement to earn an injection escalated according to the following series: 1-2-3-5-12-18-27-40-60-90-135-200-300-450-675-1000.

[3] = tested on: dopaminergic neurons; assay: Coupled in vivo microdialysis and electrophysiology: VTA dopaminergic neuron firing and dopamine outflow in nucleus accumbens; set-up: species or system rats
Description: Surgery and perfusion procedure were performed to allow concomitant electrophysiological and microdialysis monitoring. Briefly, rats were anesthetized using a 2% mixture of isoflurane/air, and a catheter was inserted into the femoral vein for intravenous drug administration. Thereafter, animals were placed in a stereotaxic frame (David Kopf Instruments, Phymep, Paris, France) equipped with a nose mask for constant delivery of the gas anesthesia (2% isoflurane during surgery, 1.5% isoflurane during electrophysiology and microdialysis experiment), and their rectal temperature was monitored and maintained at 37±1° C. by a heating pad (CMA 150, Carnégie Medecin, Phymep). […]
Single unit recording of DA neuronal firing and monitoring of DA extracellular levels were started 2 h after the beginning of probe perfusion (stabilization period). Dialysates (30 μL) were collected on ice every 15 min, and immediately analyzed to determine the baseline values of DA extracellular levels, defined by three consecutive samples in which DA content varied by less than 10% (9). […] DA neuron firing rate was recorded for 3-5 min to obtain the firing baseline, defined by a variation of less than 10% of the average frequency discharge of the DA neuron. […]
In this example the inventors further analyzed the ability of pregnenolone to inhibit the effects of CB1 activation. […]

Chain of CB1 receptor (P47746 whole entry): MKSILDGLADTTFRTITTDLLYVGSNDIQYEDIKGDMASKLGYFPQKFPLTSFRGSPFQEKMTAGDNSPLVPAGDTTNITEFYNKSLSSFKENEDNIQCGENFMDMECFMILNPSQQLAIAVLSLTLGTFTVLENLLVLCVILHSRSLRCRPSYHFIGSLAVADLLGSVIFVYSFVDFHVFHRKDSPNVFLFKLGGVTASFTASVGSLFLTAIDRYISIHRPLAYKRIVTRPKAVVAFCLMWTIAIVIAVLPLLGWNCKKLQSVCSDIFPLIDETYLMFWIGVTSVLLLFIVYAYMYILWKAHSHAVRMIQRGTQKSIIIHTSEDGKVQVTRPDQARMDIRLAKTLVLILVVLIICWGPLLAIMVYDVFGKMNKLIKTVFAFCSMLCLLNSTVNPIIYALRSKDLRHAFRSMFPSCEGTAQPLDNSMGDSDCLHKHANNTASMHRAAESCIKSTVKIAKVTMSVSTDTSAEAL

CC(=O)[C@H]1CC[C@H]2[C@@H]3CC=C4C[C@@H](O)CC[C@]4(C)[C@H]3CC[C@]12C [Pregnenolone, 5-Pregnen-3β-ol-20-one]
effect on increase in TNF-alpha induced by LPS [1]: halved the increase in TNF-alpha
effect on motivation (break-point, progressive ratio schedule) ([2]; pregnenolone 2 or 4 mg/kg): decreased the motivation to self-administer WIN55,212
effect on self-administration of WIN55,212 ([2]; pregnenolone 2 or 4 mg/kg before the session, WIN 12.5 μg/kg per injection): profoundly reduced the self-administration of WIN55,212
effect on cocaine-induced increase in activity of the dopaminergic system ([3]; pregnenolone 2 mg/kg sc 30 min before cocaine 0.0125 to 0.8 mg/kg iv cumulative): able to antagonize the increase in activity of the dopaminergic system
effect on THC-induced increase in dopamine release and dopaminergic neuron activity ([3]; sc 30 min prior to THC 0.15 to 1.2 mg/kg iv cumulative): strongly blunted the increase in dopamine release and in the activity of the dopaminergic neurons

— US10150793B2, “Antagonists of CB1 receptor” (INSERM (Institut National de la Santé et de la Recherche …, priority 2011, dated 2018)
